# From US5264441A, “Disubstituted ureas and thioureas derivatives” (Farmitalia Carlo Erba S.r.l., priority 1991, dated 1993)
# Experiments:
# [1] = target: T1, acyl CoA:cholesterol acyltransferase (ACAT-EC 2.3.1.26) (Oryctolagus cuniculus, UniProt A0A5F9CPP4); experiment: Inhibition of ACAT activity in microsomal preparations from atherosclerotic rabbit thoracic aorta; type: biochemical; details: microsomes from atherosclerotic rabbit thoracic aorta; read-out: IC50 values for the inhibition activity in microsomes from atherosclerotic rabbit thoracic aortae
# T1 construct: microsomal preparations from atherosclerotic rabbit thoracic aorta; from tissue; host or cells: microsomes of atherosclerotic rabbit thoracic aorta
# T1 sequence (A0A5F9CPP4 1-555): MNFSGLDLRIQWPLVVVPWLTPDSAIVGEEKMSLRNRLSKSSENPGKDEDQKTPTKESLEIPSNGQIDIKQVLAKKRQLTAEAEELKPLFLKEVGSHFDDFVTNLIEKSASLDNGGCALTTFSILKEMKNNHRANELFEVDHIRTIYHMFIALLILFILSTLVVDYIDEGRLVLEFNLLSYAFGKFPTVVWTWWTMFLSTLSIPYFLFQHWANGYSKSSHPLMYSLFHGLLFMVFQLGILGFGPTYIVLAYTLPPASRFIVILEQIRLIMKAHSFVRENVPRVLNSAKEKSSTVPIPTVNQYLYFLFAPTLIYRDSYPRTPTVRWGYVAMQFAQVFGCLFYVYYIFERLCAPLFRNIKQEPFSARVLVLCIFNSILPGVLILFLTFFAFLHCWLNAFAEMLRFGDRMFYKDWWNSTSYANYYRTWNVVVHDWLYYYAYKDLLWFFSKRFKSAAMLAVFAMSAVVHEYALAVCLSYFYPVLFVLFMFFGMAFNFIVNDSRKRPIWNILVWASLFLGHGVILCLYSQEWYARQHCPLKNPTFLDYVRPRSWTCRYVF
# [2] = Hypolipidaemic activity in Sprague-Dawley rats fed a 1.5% cholesterol-enriched diet for a week; type: in vivo; details: for Blood Total Cholesterol, Treating, Mean ± SE / Blood Total Cholesterol, % Change: 1 mg/kg/day, rats fed […] cholesterol-enriched diet for a week; for Blood Total Cholesterol, Treating, Mean ± SE: n = 9, * p ≤ 0.01 (Dunnett's test); for Blood Total Cholesterol, % Change: treating vs control
# Experimental: Moreover, the compounds of the invention are useful as antidyslipidaemic agents, indeed they show a high activity in lowering total serum cholesterol and triglycerides. […] Table II exemplifies the results obtained by testing the hypolipidaemic activity of a representative group of compounds of the invention administered at the dose of 1 mg/kg/day to Sprague-Dawley rats fed 1.5% cholesterol-enriched diet for a week.
# Hypocholesterolaemic activity of FCE compounds given at
# 1 mg/kg/day to rats fed 1.5% cholesterol-enriched diet
# [3] = Hypolipidaemic effect in New Zealand White rabbits fed a 1% cholesterol-enriched diet for 30 days; type: in vivo; details: compound added to the diet; for ED50: Oryctolagus cuniculus, 720 h
# [4] = Liver cholesterol accumulation in albino mice fed a 1.5% cholesterol-enriched diet for seven hours; type: in vivo; details: acute oral dose of 10 mg/kg
# [5] = Hypolipidaemic activity in Sprague-Dawley rats fed a 1.5% cholesterol-enriched diet for a week; type: in vivo; details: Rattus norvegicus, 168 h, 1.5% cholesterol-enriched chow for a week, compound added to the diet
# [6] = liver, read-out: ED50 for the cholesterol lowering effect in liver
# [7] = plasma, read-out: ED50 for the cholesterol lowering effect in plasma
IC50 [1] [nM],SMILES,"Blood Total Cholesterol, Treating, Mean ± SE [2] [mg/dL]","Blood Total Cholesterol, % Change [2] [%]",further results
7.47,"CCOC(CNC(=O)Nc1c(C(C)C)cccc1C(C)C)(OCC)c1ccccc1 [FCE 27020, N-[2,6-bis(1-methylethyl)phenyl]-N'-(2,2-diethoxy-2-phenyl) ethylurea]",–,–,–
–,"CC(C)c1cccc(C(C)C)c1NC(=O)NCC1(c2ccccc2)OC(C)C(C)O1 (stereo not drawn) [FCE 27050, N-[2,6-bis(1-methylethyl)phenyl]-N'-[(2RS,4RS,5RS)-4,5-dimethyl-2-phenyldioxolan-2-yl]methylurea]",62 ± 5,-60,"hypolipidaemic effect ([2]; Sprague-Dawley rats, […] cholesterol-enriched chow for a week, compound added to the diet): remarkable hypolipidaemic effect; ED50 [3, 6]: 0.16 mg/kg; ED50 [3, 7]: 0.19 mg/kg; accumulation of cholesterol in the liver [3]: prevented the accumulation of cholesterol in the liver; hypolipidaemic effect [3]: potent hypolipidaemic effect; accumulation of cholesterol in the liver [4]: prevented in a significative fashion the accumulation of cholesterol in the liver; ED50 [5, 6]: 0.51 mg/kg; ED50 [5, 7]: 0.83 mg/kg"
6.5,"CC(C)c1cccc(C(C)C)c1NC(=O)NCC1(C2CCCCC2)OCC(C)(C)CO1 [FCE 27356, N-[2,6-bis(1-methylethyl)phenyl]-N'-(2-cyclohexyl-5,5-dimethyl-1,3-dioxan-2-yl)methylurea]",–,–,–
–,"CC(C)c1cccc(C(C)C)c1NC(=O)NCC1(C2CCCCC2)O[C@@H](C)[C@H](C)O1 [FCE 27480, N-[2,6-bis(1-methylethyl)phenyl]-N'-[(4S, 5S)-2-cyclohexyl-4,5-dimethyldioxolan-2-yl]methylurea]",85 ± 9,-46,–
–,"CC(C)c1cccc(C(C)C)c1NC(=O)NCC1(c2ccccc2)O[C@H](C)[C@@H](C)O1 [FCE 27529, N-[2,6-bis(1-methylethyl)phenyl]-N'-[(4R,5R)-4,5-dimethyl-2-phenyldioxolan-2-yl]methylurea]",75 ± 4,-62,–
–,"CC(C)c1cccc(C(C)C)c1NC(=O)NCC1(c2ccc(N(C)C)cc2)OCC(C)(C)CO1 [FCE 27607, N-[2,6-bis(1-methylethyl)phenyl]-N'-[2-(4-dimethylaminophenyl)-5,5-dimethyl-1,3-dioxan-2-yl]methylurea]",110 ± 8,-48,–
9.5,"CC(C)c1cccc(C(C)C)c1NC(=O)NCC1(C2CCCCC2)SCCS1 [FCE 27612, N-[2,6-bis(1-methylethyl)phenyl]-N'-(2-cyclohexyl-1,3-dithiolan-2-yl)methylurea]",59 ± 7,-72,–
